# Reference: patent US12390460B2, “Treatment for obesity” (1GLOBE BIOMEDICAL CO., LTD., priority 2018, dated 2025)
# Assays:
# [1] = Body weight, food/water intake and adverse effects in modified high-fat diet (HFD) obese mice; format: in vivo, C57B1/6J mice
# Description: In order to assess the in vivo efficacy of Compound 14-3, a preferred embodiment of the compound of the invention, in treating and ameliorating obesity and related diseases like the metabolic syndrome, a previously used modified high-fat diet (HFD) was employed to induce obesity and severe fatty liver disease in mice (Derdak et al. J of Hepatology 2013; 58(4):785-91).
# Five-week-old male, C57B1/6J mice (12-18 per group, Jackson Laboratory, Bar Harbor, ME) were fed ad libitum with a modified high-fat or control diet (Bioserv, Frenchtown, NJ) for 15 weeks. […] We had verified the efficacy of this diet to induce obesity in various pilot studies. At the end of the 15-week long feeding regimen, this diet caused substantial weight gain in these mice.
# After 15 weeks on the modified HFD, the mice were put on a Compound 14-3 (or control vehicle) dosing regimen, in which the introductory 5 mg/kg (p.o., t.i.w. for the first 3 weeks) dose was followed by the administration of 10 mg/kg (p.o., t.i.w. for an additional 5 weeks) therapeutic dose. During the course of the drug treatment, the animals were monitored daily for changes in body weight, food/water intake, and any adverse effects.
# [2] = tested on: hypothalamic molecular mediators of hunger and satiety signaling (AgRP, NPY, POMC); assay: Quantitative real-time PCR of hypothalamic hunger and satiety genes; format: in vivo; conditions: HFD-fed mice, FIG. 2B
# Protocol: Referring now to FIG. 2B, hypothalamic molecular mediators of hunger and satiety signaling in hypothalamus were analyzed using quantitative real-time PCR with commercially available probes (Thermo Fisher Scientific Inc., Waltham, MA). AgRP and NPY are hunger-inducing signals, while POMC is powerful satiety-inducing signal in the hypothalamus. […] This was in agreement with the food intake information that we collected over the course of the experiment. […] Therefore, it was concluded that the expression levels of hypothalamic hunger or satiety genes cannot explain the marked weight loss of the Compound-14-3-treated mice on HFD and that decrease in satiety was secondary to prolonged negative energy balance in the same group.
# [3] = tested on: UCP1 and DIO2 in brown adipose tissue (BAT); assay: Quantitative real-time PCR of markers of thermogenic brown adipose tissue activation; format: in vivo; conditions: HFD-fed mice, vs vehicle; FIG. 2C
# Description: Finally, the recruitment of brown adipose tissue (BAT) was examined. BAT is a well-know site for dissipating excess energy to prevent weight gain by inducing thermogenesis. Importantly, the expression levels of the two investigated markers of thermogenic BAT activation—UCP1 and DIO2—were not different in the two HFD-fed groups when measured by quantitative real-time PCR (FIG. 2C), indicating similar levels of BAT activation in response to HFD. These findings led us to conclude that for the weigh loss seen in the Compound 14-3-treated HFD-fed mice, other mechanisms are probably responsible.
# [4] = tested on: white adipose tissue adipocytes; assay: H & E staining and morphometry of eWAT and iWAT adipocytes; format: in vivo; conditions: HFD-fed mice
# TGF-β = TGF-β gene expression in eWAT; format: in vivo; conditions: HFD-fed mice; FIG. 4C
# Description: Since obesity has been linked to low-grade inflammation in the adipose tissue, we consequently observed increased TGF-β expression in the epididymal fat pads of the HFD-fed mice.
# FGF21 = assay: Serum FGF21 (ELISA) and FGF21 gene expression; format: in vivo; conditions: HFD-fed mice
# Description: Many of the beneficial metabolic effect are linked to FGF21, and FGF21 itself may further enhance fatty acid oxidation (Xu J, et al. Diabetes (2009) 58(1):250-259; Li H, et al. Diabetes (2012) 61(4):797-806). We, therefore, also measured serum levels of FGF21 using a commercially available ELISA kit. […] Accordingly, in an aspect of the invention, Compound 14-3 treatment is utilized to increase fatty acid oxidation, resulting in decreased fat content in iWAT and eWAT, and decreased body weight in a subject.
# [5] = Oral glucose tolerance test (OGTT); format: in vivo; conditions: HFD-fed mice, 5th week of treatment, vs vehicle
# Protocol: (§1) The described beneficial changes in body composition improved all aspects of the metabolic syndrome, including the underlying insulin resistance. Therefore, to fully characterize this animal model, we also assessed insulin signaling on live animals on the 5th week of Compound 14-3-treatment by conducting oral glucose tolerance test (OGTT, FIGS. 9A-C) and intraperitoneal insulin tolerance test (ITT, FIGS. 9D-E).
# (§2) Both the OGTT and ITT tests were carried out on mice that have been starved for 6 hours before the procedure to eliminate the effect of the last meal on the blood glucose level. In both tests, we measured fasting glucose levels 30 min before the start of the assay to define baseline conditions. In the OGTT assay, the mice had been gavaged with 2 g/kg glucose, dissolved in water. After administration of the glucose, blood glucose level was measured via tail vein nicking using a commercially available glucometer. The obtained data was plotted against time (FIG. 9A) and the area under curve (AUC) calculations were carried out (FIG. 9B). Additionally, the blood glucose level measured at 120 min after gavage was used to describe the overall glucose tolerance of the mice (FIG. 9C).
# [6] = Intraperitoneal insulin tolerance test (ITT); format: in vivo; conditions: HFD-fed mice, 5th week of treatment, vs vehicle
# Protocol: as §1
# as §2, with “The obtained data was plotted against time (FIG. 9A) and the area under curve (AUC) calculations were carried out (FIG. 9B).” left out
# In the ITT test, we have intraperitoneally administered […] human recombinant insulin (Humulin N, Eli Lilly, Cambridge, MA) at the start of the assay and blood glucose was similarly measured for 120 min. […]
# [7] = mice, 5 then 10 mg/kg p.o. t.i.w.
structure (smiles),measurement,setting,value
CCN(CC)CCNC(=O)c1c(C)[nH]c(/C=C2\C(=O)Nc3ccc(-c4csc(-c5ccccc5)n4)cc32)c1C [Compound 14-3],daily normalized caloric (food) intake,"[1]; HFD-fed mice during treatment, FIG. 1C",not linked to decreased food intake
same,daily normalized water intake,"[1]; HFD-fed mice during treatment, FIG. 1D",not linked to decreased
same,change in body weight during treatment,"[1]; HFD-fed mice, 5 mg/kg p.o. t.i.w. 3 weeks then 10 mg/kg p.o. t.i.w. 5 weeks, FIG. 1A","not only prevented additional weight gain in the mice on HFD, but also triggered a gradual weight loss"
same,difference in body weight vs control-vehicle-treated mice on HFD at the time of euthanasia,"[1]; HFD-fed mice, 5 then 10 mg/kg p.o. t.i.w., 8 weeks, FIG. 1B",~20%
same,behaviors or activities,[1]; [7],No changes in behaviors or activities were observed
same,side effects,[1]; [7],"temporary, self-resolving, mild diarrhea seen in a couple of mice at the initiation of drug treatment"
same,satiety-inducing POMC expression in hypothalamus,[2]; vs corresponding control group,significant decrease
same,"expression of appetite-inducing genes (AgRP, NPY) in hypothalamus",[2]; vs vehicle,no significant difference
same,DIO2 expression level in BAT,[3],not different
same,UCP1 expression level in BAT,[3],not different
same,size of eWAT adipocytes,"[4]; H & E staining of eWAT, FIG. 4A-4B",decrease in the size of adipocytes
same,size of iWAT adipocytes,"[4]; H & E staining of iWAT, morphometry, FIG. 5A-5B",decrease in size of adipocytes
same,TGF-β abundance (gene expression) in eWAT,TGF-β,decreased
same,serum FGF21 levels,"FGF21; ELISA, FIG. 7A",increased
same,FGF21 gene expression,FGF21; FIG. 7B,increased
same,glucose tolerance (OGTT),"[5]; 6 h starved, 2 g/kg glucose gavage, FIG. 9A",markedly improved
same,area under curve during OGTT,[5]; FIG. 9B,smaller
same,blood glucose level at 120 min during OGTT,[5]; FIG. 9C,decreased
same,blood glucose levels in response to insulin (ITT),"[6]; i.p. insulin, 120 min, FIG. 9D",steeper drop
same,area under curve during ITT,[6]; FIG. 9E,smaller
